From US20230192617A1, “AZABICYCLIC(THIO)AMIDES AS FUNGICIDAL COMPOUNDS” (Bayer CropScience Aktiengesellschaft, priority 2020, published 2023)

What was measured:
Sphaerotheca fuliginea = experiment: In vivo preventive test on Sphaerotheca fuliginea (powdery mildew on cucurbits); settings: Podosphaera fuliginea, 192 h; 500 ppm of active ingredient; preventive spray on gherkin; evaluated 8 days after inoculation; read-out: efficacy
In short: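 This is a preventive spray test on gherkin seedlings, with compound formulated in DMSO/acetone/Tween 80 in water and solvent-only controls. Spore inoculation followed one day after treatment. Incubation lasted 8 days at 20 °C, 70–80% RH.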

Botrytis cinerea [1] = experiment: In vivo preventive test on Botrytis cinerea (grey mould); settings: 500 ppm of active ingredient, preventive spray on gherkin or cabbage, evaluated 4 to 5 days after inoculation, read-out: efficacy
In short: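 Preventive spray on cabbage or gherkin seedlings, with compound formulated in DMSO/acetone/Tween 80 and water-diluted, preceded spore inoculation by 24 hours. Cabbage was held 4 to 5 days at 20° C., 100% relative humidity; gherkin 4 to 5 days at 17° C., 90% relative humidity.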

Alternaria brassicae = experiment: In vivo preventive test on Alternaria brassicae (leaf spot on radish or cabbage); settings: 500 ppm of active ingredient, preventive spray on radish or cabbage, evaluated 3 to 4 days after inoculation, read-out: efficacy
In short: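 Protective spray on young radish or cabbage: actives in water diluted from DMSO/acetone/Tween 80, with solvent-only controls. Leaves were challenged after 24 h with a spore suspension, and plants were held at 100% RH, 20 °C for 3 to 4 days.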

Alternaria alternata = Alternaria alternata in vitro cell test; format: cell-based; settings: 120 h, 20 ppm of active ingredient, liquid culture, 5 days incubation, spectrometric measurement of mycelium growth, read-out: efficacy (inhibition of fungal growth)
In short: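 Spectrometric readout of mycelial growth after 5-day incubation gauged compound effects on spore germination and growth of A. alternata in liquid medium. Compounds were delivered in DMSO at ≤1% final. Absorbance was compared with untreated controls to give inhibition.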

[2] = Measurement of Log P values by HPLC on reversed phase columns (EEC directive 79/831 Annex V.A8); format: physicochemical; settings: reversed phase HPLC column, method [a]: LC-UV, acidic range, 0.1% formic acid in water and acetonitrile as eluent
In short: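 Log P derived from retention on reversed-phase columns (EEC directive 79/831 Annex V.A8), LC-UV, acetonitrile gradient 10% to 95% against water containing 0.1% formic acid, 0.001 M ammonium acetate, or 0.1% phosphoric acid; several values per method separated by "+".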

[3] = system: Colletotrichum lindemuthianum; experiment: B-8. Colletotrichum lindemuthianum in vitro cell test; format: cell-based; settings: 144 h, 20 ppm of active ingredient, 6 days incubation, liquid culture, absorbance, read-out: efficacy (inhibition of fungal growth)
In short: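 Liquid-culture germination/growth test: compounds in ≤1% final DMSO were added to spore-containing medium. Fungal growth was quantified spectrophotometrically after 6 days of incubation and expressed as inhibition versus untreated controls.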

Pyrenophora teres [4] = experiment: In vivo preventive test on Pyrenophora teres (net blotch on barley); settings: 240 h, 500 ppm of active ingredient, preventive spray on barley, evaluated 10 days after inoculation, read-out: efficacy
Protocol: B-3. In Vivo Preventive Test on Pyrenophora Teres (Net Blotch on Barley) [table] The active ingredients were made soluble and homogenized in a mixture of Dimethyl sulfoxide/Acetone/Tween® 80 and then diluted in water to the desired concentration. The young plants of barley were treated by spraying the active ingredient prepared as described above. Control plants were treated only with an aqueous solution of Acetone/Dimethyl sulfoxide/Tween® 80. After 24 hours, the plants were contaminated by spraying the leaves with an aqueous suspension of Pyrenophora teres spores. The contaminated barley plants were incubated for 48 hours at 20° C. and at 100% relative humidity and then for 8 days at 20° C. and at 70-80% relative humidity.

Botrytis cinerea [5] = experiment: B-11. Botrytis cinerea in vitro cell test; format: cell-based; settings: 144 h, 20 ppm of active ingredient, 6 days incubation, liquid culture, absorbance, read-out: efficacy (inhibition of fungal growth)
In short: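 B. cinerea spores were grown in liquid culture with compound (DMSO ≤1% final). Mycelium growth was measured spectrometrically after 6 days, with inhibition taken as absorbance relative to untreated control wells.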

[6] = system: Colletotrichum lindemuthianum; experiment: In vivo preventive test on Colletotrichum lindemuthianum (leaf spot on bean); settings: 168 h, 500 ppm of active ingredient, preventive spray on bean, evaluated 7 days after inoculation, read-out: efficacy
Protocol: B-5. In Vivo Preventive Test on Colletotrichum lindemuthianum (Leaf Spot on Bean) [table] The active ingredients were made soluble and homogenized in a mixture of Dimethyl sulfoxide/Acetone/Tween® 80 and then diluted in water to the desired concentration. The young plants of bean were treated by spraying the active ingredient prepared as described above. Control plants were treated only with an aqueous solution of Acetone/Dimethyl sulfoxide/Tween® 80. After 24 hours, the plants were contaminated by spraying the leaves with an aqueous suspension of Colletotrichum lindemuthianum spores. The contaminated bean plants were incubated for 24 hours at 20° C. and at 100% relative humidity and then for 6 days at 20° C. and at 90% relative humidity.

Pyrenophora teres [7] = experiment: B-10. Pyrenophora teres in vitro cell test; format: cell-based; settings: 144 h, 20 ppm of active ingredient, 6 days incubation, liquid culture, absorbance, read-out: efficacy (inhibition of fungal growth)
In short: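 Liquid-culture assay on a P. teres spore suspension with compounds added to the medium from DMSO solutions, final DMSO ≤1%. Mycelium growth read spectrometrically after 6 days. Inhibition calculated from absorbance against untreated control wells.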

SMILES	chromatographic logP [2]	pest or weed control at 500 ppm (Sphaerotheca fuliginea) [%]	pest or weed control at 500 ppm (Botrytis cinerea [1]) [%]	pest or weed control at 500 ppm (Alternaria brassicae) [%]	inhibition at 20 ppm (Alternaria alternata) [%]	inhibition at 20 ppm [3] [%]	pest or weed control at 500 ppm (Pyrenophora teres [4]) [%]	inhibition at 20 ppm (Botrytis cinerea [5]) [%]	pest or weed control at 500 ppm [6] [%]	inhibition at 20 ppm (Pyrenophora teres [7]) [%]
Cc1ccc2c(C(=O)NC[C@H](F)c3ccc(Cl)cc3Cl)c(Oc3cccc(C(F)(F)F)c3)nnc2c1 (racemic) [I-047]	4.45	90 to 100	90 to 100	90 to 100	90 to 100	90 to 100	80 to 89			
Cc1ccc([C@@H](F)CNC(=O)c2c(Oc3cccc(C(F)(F)F)c3)cnc3ccccc23)c(Cl)c1 (racemic) [I-060]	4.4	90 to 100	90 to 100	90 to 100	90 to 100	90 to 100		90 to 100	90 to 100	
Cc1cc(Cl)ccc1[C@@H](F)CNC(=O)c1c(Oc2cccc(C(F)(F)F)c2)cnc2ccccc12 (racemic) [I-061]	4.47	90 to 100	90 to 100	90 to 100	90 to 100	90 to 100		90 to 100	70 to 79	
Cc1cccc(Oc2nnc3ccccc3c2C(=O)NCC(F)(F)c2ccc(C)cc2C)c1 [I-017]	4.11	90 to 100	90 to 100	90 to 100	90 to 100	90 to 100	70 to 79			
Cc1ccc(C(F)(F)CNC(=O)c2c(Oc3cccc(C(F)(F)F)c3)nnc3cnccc23)c(C)c1 [I-162]	4.15			90 to 100	90 to 100	90 to 100	70 to 79	90 to 100		90 to 100
CCN(CCc1ccccc1)C(=O)c1c(Oc2cccc(C(F)(F)F)c2)nnc2ccccc12 [I-205]	4.28	70 to 79	80 to 89				80 to 89			

The next lines start with results.

chromatographic logP [2]	SMILES	pest or weed control at 500 ppm (Sphaerotheca fuliginea) [%]	pest or weed control at 500 ppm (Botrytis cinerea [1]) [%]	pest or weed control at 500 ppm (Alternaria brassicae) [%]	inhibition at 20 ppm (Alternaria alternata) [%]	inhibition at 20 ppm [3] [%]	pest or weed control at 500 ppm (Pyrenophora teres [4]) [%]	inhibition at 20 ppm (Botrytis cinerea [5]) [%]	pest or weed control at 500 ppm [6] [%]	inhibition at 20 ppm (Pyrenophora teres [7]) [%]
3.84	Cc1cc(C(F)F)ccc1[C@@H](F)CNC(=O)c1c(Oc2cccc(Cl)c2)nnc2ccccc12 (racemic) [I-049]		90 to 100	90 to 100	90 to 100	90 to 100	80 to 89	90 to 100		
3.87	Cc1cccc(Oc2nnc3ccccc3c2C(=O)NCC(F)(F)c2ccc(Cl)cc2)c1 [I-014]	90 to 100	90 to 100	90 to 100	90 to 100	90 to 100	70 to 79			
4.37	Cc1cccc(Oc2nnc3ccccc3c2C(=O)NCC(F)(F)c2ccc(Br)cc2Cl)c1 [I-015]	90 to 100	90 to 100	90 to 100	90 to 100	90 to 100	70 to 79			
4.62	C=Cc1ccc(C(F)(F)CNC(=O)c2c(Oc3cccc(C(F)(F)F)c3)nnc3ccccc23)c(Cl)c1 [I-064]		90 to 100	90 to 100	90 to 100	90 to 100	80 to 89	90 to 100		
3.18	Cc1ccc(C(F)(F)CNC(=O)c2c(Oc3cccc(C(F)(F)F)c3)nnc3c2CC(O)CC3)c(C)c1 (stereo not drawn) [I-117]	90 to 100	90 to 100	70 to 79	90 to 100	90 to 100		90 to 100	90 to 100	
4.66	Cc1ccc(C(F)(F)CNC(=O)c2c(Oc3cccc(C(F)(F)F)c3)nnc3cc(F)ccc23)c(Cl)c1 [I-171]			90 to 100	90 to 100	90 to 100	70 to 79	90 to 100		90 to 100
